Laboratory results: the supplement of paper PMC10307832

Legend:
Assay in all cases: relative viability (nuclei count vs DMSO), 5 days (fraction); higher = more cells survive
[1] = compound: CC(C)N(CCCNC(=O)Nc1ccc(C(C)(C)C)cc1)C[C@H]1O[C@@H](n2ccc3c(N)ncnc32)[C@H](O)[C@@H]1O + Cc1nc(Nc2ncc(C(=O)Nc3c(C)cccc3Cl)s2)cc(N2CCN(CCO)CC2)n1 [Dasatinib] (partner 0.075 µM)
Summary of the method: (§1)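 Relative viability was taken as the ratio of nuclei in treated wells to nuclei in vehicle wells. Lung cancer cell lines in 1536-well plates received compounds by pin tool one day after seeding, either one drug alone or a fixed anchor-drug dose plus five library-drug doses (not always all listed) in √10 steps. Nuclei were counted on 4× images after 5 days of treatment, and values are medians of duplicate plates.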

[2] = compound: CC(C)=CC[C@@H](O)C1=CC(=O)c2c(O)ccc(O)c2C1=O [Shikonin] + Nc1ncn([C@H]2C[C@H](O)[C@@H](CO)O2)c(=O)n1 [Decitabine] (partner 2 µM)
Summary of the method: as §1

[3] = compound: CC(C)N(CCCNC(=O)Nc1ccc(C(C)(C)C)cc1)C[C@H]1O[C@@H](n2ccc3c(N)ncnc32)[C@H](O)[C@@H]1O + CCNC(=O)c1noc(-c2cc(C(C)C)c(O)cc2O)c1-c1ccc(CN2CCOCC2)cc1 [Luminespib] (partner 0.01 µM)
Summary of the method: as §1

[4] = compound: CC(C)=CC[C@@H](O)C1=CC(=O)c2c(O)ccc(O)c2C1=O [Shikonin] + CC(C)C[C@H](NC(=O)[C@H](Cc1ccccc1)NC(=O)c1cnccn1)B(O)O [Bortezomib] (partner 0.002 µM)
Summary of the method: as §1

Cell Line | relative viability ([1]; first compound 0.08 µM) | relative viability ([1]; first compound 0.253 µM) | relative viability ([1]; first compound 0.8 µM) | relative viability ([1]; first compound 2.53 µM) | relative viability ([1]; first compound 8 µM) | relative viability ([2]; first compound 0.01 µM) | relative viability ([2]; first compound 0.1 µM) | relative viability ([2]; first compound 0.3162 µM) | relative viability ([2]; first compound 1 µM) | relative viability ([3]; first compound 0.08 µM) | relative viability ([3]; first compound 0.253 µM) | relative viability ([3]; first compound 0.8 µM) | relative viability ([3]; first compound 2.53 µM) | relative viability ([3]; first compound 8 µM) | relative viability ([4]; first compound 0.01 µM) | relative viability ([4]; first compound 0.1 µM) | relative viability ([4]; first compound 0.3162 µM) | relative viability ([4]; first compound 1 µM)
LC-2-ad | 0.528 | 0.569 | 0.527 | 0.502 | 0.632 | 0.75 | 0.849 | 0.874 | 0.89 | 0.935 | 0.973 | 1.07 | 0.893 | 1.03 | 1.08 | 1.05 | 1.07 | 1.02
LCLC-97TM1 | 0.897 | 0.783 | 0.933 | 0.822 | 0.82 | 0.257 | 0.232 | 0.215 | 0.242 | 0.699 | 0.647 | 0.705 | 0.666 | 0.707 | 0.331 | 0.721 | 0.814 | 0.631
LCLC-103H | 0.435 | 0.424 | 0.449 | 0.428 | 0.443 | 0.711 | 0.727 | 0.74 | 0.75 | 0.765 | 0.944 | 0.883 | 0.926 | 0.93 | 1.12 | 1.12 | 1.07 | 1.25
LOU-NH91 | 0.572 | 0.579 | 0.485 | 0.553 | 0.529 | 0.787 | 0.879 | 0.856 | 0.816 | 0.381 | 0.328 | 0.283 | 0.333 | 0.368 | 0.533 | 0.469 | 0.445 | 0.535
LU99A | 0.477 | 0.381 | 0.679 | 0.597 | 0.479 | 0.744 | 1.05 | 0.978 | 0.852 | 0.234 | 0.277 | 0.253 | 0.317 | 0.222 | 1.21 | 1.33 | 1.09 | 1.03
LXF-289 | 0.281 | 0.271 | 0.231 | 0.186 | 0.229 | 0.356 | 0.342 | 0.453 | 0.378 | 0.731 | 0.679 | 0.65 | 0.669 | 0.71 | 1.1 | 1.03 | 1 | 1.04
NCI-H23 | 0.685 | 0.645 | 0.716 | 0.798 | 0.725 | 0.335 | 0.306 | 0.333 | 0.277 | 0.224 | 0.23 | 0.199 | 0.233 | 0.21 | 1.11 | 0.953 | 1.13 | 1.13
NCI-H322M | 0.278 | 0.266 | 0.264 | 0.24 | 0.284 | 0.736 | 0.723 | 0.714 | 0.664 | 0.92 | 0.759 | 0.889 | 0.76 | 0.913 | 1.14 | 1.32 | 1.26 | 1.33
NCI-H441 | 0.718 | 0.535 |  | 0.544 | 0.535 | 0.249 | 0.26 | 0.258 | 0.206 | 0.39 | 0.334 |  | 0.278 | 0.368 | 0.581 | 0.666 | 0.549 | 0.603
